# Assay results: PMC6348446 (Journal of Medicinal Chemistry, 2018)
# Tests used:
# EOL-1 cells = assay: Cell viability/proliferation (cellular ATP, CellTiterGlo) in EOL-1; format: cell-based; conditions: Homo sapiens, EOL1; EOL-1, text; read-out: EC50 (cytotoxicity, cell viability)
# [1] = Intrinsic clearance in mouse liver microsomes; format: in vitro ADME; conditions: 0.5 µM compound
# Description: (§1) compounds against known CHI values. The CHI value of test compounds was then calculated according to their retention time.
# (§2) Test compounds were prepared as 0.25 mM solutions in 50:50 acetonitrile:water and analysed by reversed-phase HPLC-UV (wavelength 254 nm) using a ACE Excel 3 SuperC18, 3 µm, 50 x 2.1 mm column with a gradient of aqueous phase (10 mM ammonium acetate, pH 7.4) and mobile phase (acetonitrile).
# (§3) Intrinsic clearance (Cli) experiments
# (§4) Test compound (0.5 µM) was incubated with female CD1 mouse or human (mixed gender) liver microsomes (Xenotech LLCTM; 0.5 mg/mL 50mM potassium phosphate buffer, pH7.4) and the reaction initiated with addition of excess NADPH (8 mg/mL 50 mM potassium phosphate buffer, pH7.4). Immediately, at time zero, then at 3, 6, 9, 15 and 30 minutes an aliquot (50 µL) of the incubation mixture was removed and mixed with acetonitrile (100 µL) to stop the reaction. Internal standard was added to all samples, the samples centrifuged to sediment precipitated protein and the plates then sealed prior to […] analysis using […]
# (§5) a Xevo TQ-S Micro (Waters corporation, USA).
# (§6) XLfit (IDBS, UK) was used to calculate the exponential decay and consequently the rate constant (k) from the ratio of peak area of test compound to internal standard at each timepoint. The rate of intrinsic clearance (CLi) of each test compound was then calculated using the following calculation: […]
# [2] = Intrinsic clearance in human liver microsomes; format: in vitro ADME; conditions: 0.5 µM compound
# Description: as §1, §2, §3, §4, §5, §6
Structure (SMILES),EC50 (EOL-1 cells),"Microsomal stability (intrinsic clearance), Mouse [1]","Microsomal stability (intrinsic clearance), Human [2]"
"COc1cc(-c2cn(C)c(=O)c3cnccc23)cc(OC)c1CN1CCN(CCCCCOc2cc(-c3scnc3C)ccc2CNC(=O)[C@@H]2C[C@@H](O)CN2C(=O)[C@@H](NC(=O)C2(F)CC2)C(C)(C)C)CC1 [Compound 51, (2S,4R)-N-(2-((5-(4-(2,6-Dimethoxy-4-(2-methyl-1-oxo-1,2-dihydro-2,7-naphthyridin-4-yl)benzyl)piperazin-1-yl)pentyl)oxy)-4-(4-methylthiazol-5-yl)benzyl)-1-((S)-2-(1-fluorocyclopropane-1-carboxamido)-3,3-dimethylbutanoyl)-4-hydroxypyrrolidine-2-carboxamide]",3 nM,–,–
COc1cc(-c2cn(C)c(=O)c3cnccc23)cc(OC)c1CN1CCN(CCCCCOc2cc(-c3scnc3C)ccc2CNC(=O)[C@@H]2C[C@H](O)CN2C(=O)[C@@H](NC(=O)C2(F)CC2)C(C)(C)C)CC1 [cisVZ185],–,2.4 mL/min/g liver,8.1 mL/min/g liver
